The NIST ThermoML archive (doi:10.1016/j.jct.2014.05.015)
± gives the expanded uncertainty stated by the source.

Experiments:
[1] = mn = molality of the nth substance listed, in mol/kg; conditions: 100 kPa, Liquid; for speed of sound: Frequency=3 MHz, Sing-around technique in a fixed-path interferometer; for mass density: Vibrating tube method
[2] = 100 kPa, Liquid

O=C[C@H](O)[C@@H](O)[C@H](O)[C@H](O)CO [D-glucose] + O
[1]
Conditions	mass density, 293.15 K [kg/m3]	mass density, 298.15 K [kg/m3]	mass density, 303.15 K [kg/m3]	mass density, 308.15 K [kg/m3]	mass density, 313.15 K [kg/m3]	speed of sound, 293.15 K [m/s]	speed of sound, 298.15 K [m/s]	speed of sound, 303.15 K [m/s]	speed of sound, 308.15 K [m/s]	speed of sound, 313.15 K [m/s]
m1 = 0.1	1005.07 ± 0.26	1003.87 ± 0.26	1002.44 ± 0.26	1000.79 ± 0.26	998.945 ± 0.26	1489.2 ± 1.6	1502.9 ± 1.6	1514.8 ± 1.6	1525.3 ± 1.6	1534.1 ± 1.6
m1 = 0.2	1012.08 ± 0.27	1010.89 ± 0.27	–	–	1005.86 ± 0.26	1496 ± 1.6	1509.4 ± 1.6	1521.2 ± 1.6	1531.2 ± 1.6	1539.8 ± 1.6
m1 = 0.3	1018.81 ± 0.27	1017.52 ± 0.27	1016.01 ± 0.27	1014.29 ± 0.27	1012.36 ± 0.27	1502.5 ± 1.6	1515.8 ± 1.6	1527.3 ± 1.6	1537.2 ± 1.6	1545.7 ± 1.6

OC[C@H]1O[C@@](CO)(O[C@H]2O[C@H](CO)[C@@H](O)[C@H](O)[C@H]2O)[C@@H](O)[C@@H]1O [D-sucrose] + O
[1]
Conditions	mass density, 293.15 K [kg/m3]	mass density, 298.15 K [kg/m3]	mass density, 303.15 K [kg/m3]	mass density, 308.15 K [kg/m3]	mass density, 313.15 K [kg/m3]	speed of sound, 293.15 K [m/s]	speed of sound, 298.15 K [m/s]	speed of sound, 303.15 K [m/s]	speed of sound, 308.15 K [m/s]	speed of sound, 313.15 K [m/s]
m1 = 0.1	1011.49 ± 0.14	1010.26 ± 0.14	1008.81 ± 0.14	1007.14 ± 0.13	1005.28 ± 0.13	1492.3 ± 1.3	1505.9 ± 1.3	1517.8 ± 1.3	1528.1 ± 1.3	1536.7 ± 1.3
m1 = 0.2	1024.67 ± 0.14	1023.37 ± 0.14	1021.85 ± 0.14	1020.13 ± 0.14	1018.22 ± 0.14	1502.4 ± 1.3	1515.7 ± 1.3	1527 ± 1.3	1536.9 ± 1.3	1545.4 ± 1.3
m1 = 0.3	1037.84 ± 0.14	1036.47 ± 0.14	1034.89 ± 0.14	1033.11 ± 0.14	1031.16 ± 0.14	1512.9 ± 1.3	1525.7 ± 1.3	1536.8 ± 1.3	1546.3 ± 1.3	1554.2 ± 1.4

O [water]
Conditions	mass density [kg/m3]
[2], 308.15 K, Vibrating tube method	994.061 ± 0.26

Conditions	speed of sound [m/s]
[2], 313.15 K, Frequency=3 MHz, Sing-around technique in a fixed-path interferometer	1528.8 ± 1.6
